In the supplement of paper PMC11061612:

Experiments:
[1] = compound: CC(C)n1c(=O)n(C)c2cnc3cc(F)c(-c4ccc(OCCCN5CCCCC5)nc4)cc3c21 [AZD1390]; details: max 0.3 µM
In short: (§1)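 Cancer cell lines were plated in 1536-well plates in 7.5 μl of DMEM/F12 or RPMI with 10% FBS and kept 24 hours at 37°C and 5% CO2 before 72 hours of dosing, with final DMSO typically 0.2%. CellTiter-Glo 2.0 luminescence measured viability, scaled between blank-well and DMSO-well means. Dose responses were fitted to a two-parameter logistic curve with a non-linear mixed effects model. This fit gives the single-agent IC50.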

[2] = compound: CC(=O)c1c(C)c2cnc(Nc3ccc(N4CCNCC4)cn3)nc2n(C2CCCC2)c1=O [Palbociclib]; details: max 10 µM
In short: as §1

[3] = compound: Nc1ccn([C@@H]2O[C@H](CO)[C@@H](O)C2(F)F)c(=O)n1 [Gemcitabine]; details: max 0.3 µM
In short: as §1

[4] = compound: COc1cccc2c1C(=O)c1c(O)c3c(c(O)c1C2=O)C[C@@](O)(C(=O)CO)C[C@@H]3O[C@H]1C[C@H](N)[C@H](O)[C@H](C)O1 [Doxorubicin]; details: max 1 µM
In short: as §1

[5] = compound: CC1(C)CCC(CN2CCN(c3ccc(C(=O)NS(=O)(=O)c4ccc(NCC5CCOCC5)c([N+](=O)[O-])c4)c(Oc4cnc5[nH]ccc5c4)c3)CC2)=C(c2ccc(Cl)cc2)C1 [Venetoclax]; details: max 1 µM
In short: as §1

[6] = compound: COc1nnc2ccc(N3CCC(c4ccc(OCCN5CCN(C)C(=O)[C@H]5C)cc4)CC3)nn12 [AZD5153]; details: max 1 µM
In short: as §1

[7] = compound: Cc1cc2ncnn2cc1Nc1ncc2c(n1)n(C1CCOCC1)c(=O)n2C [AZD7648]; details: max 10 µM
In short: as §1

[8] = compound: CN(CC[C@H](CSC1=CC=CC=C1)NC2=C(C=C(C=C2)S(=O)(=O)NC(=O)C3=CC=C(C=C3)N4CCC(CC4)[C@H](C5=CC=CC=C5C6=CC=C(C=C6)Cl)O)S(=O)(=O)C(F)(F)F)CCO [AZD4320]; details: max 1 µM
In short: as §1

[9] = compound: C[C@@H](c1ccc2nccn2c1)n1nnc2ncc(-c3cnn(C)c3)nc21 [Savolitinib]; details: max 1 µM
In short: as §1

[10] = compound: C=CCn1c(=O)c2cnc(Nc3ccc(N4CCN(C)CC4)cc3)nc2n1-c1cccc(C(C)(C)O)n1 [AZD1775]; details: max 3 µM
In short: as §1

[11] = compound: N#Cc1cnc(Nc2cc(NC[C@H]3CNCCO3)c(C(F)(F)F)cn2)cn1 [SRA737]; details: max 10 µM
In short: as §1

[12] = compound: COc1cc2ncnc(Nc3ccc(F)c(Cl)c3)c2cc1OCCCN1CCOCC1 [Gefitinib]; details: max 10 µM
In short: as §1

[13] = compound: NC1(c2ccc(-c3nc4ccn5c(=O)[nH]nc5c4cc3-c3ccccc3)cc2)CCC1 [MK-2206]; details: max 10 µM
In short: as §1

[14] = compound: C[C@@H](Oc1cc(-c2cnn(C3CCNCC3)c2)cnc1N)c1c(Cl)ccc(F)c1Cl [Crizotinib]; details: max 10 µM
In short: as §1

[15] = compound: C1CN(CCC1(C(=O)N[C@@H](CCO)C2=CC=C(C=C2)Cl)N)C3=NC=NC4=C3C=CN4 [AZD5363]; details: max 10 µM
In short: as §1

[16] = compound: COc1cc(Nc2ncc3c(n2)-c2ccc(Cl)cc2C(c2c(F)cccc2OC)=NC3)ccc1C(=O)O [Alisertib]; details: max 10 µM
In short: as §1

[17] = compound: Cc1nc(-c2cn3c(n2)-c2ccc(-c4cnn(C(C)(C)C(N)=O)c4)cc2OCC3)n(C(C)C)n1 [Taselisib]; details: max 10 µM
In short: as §1

[18] = compound: CC1=C(C(=CC=C1)Cl)NC(=O)C2=CN=C(S2)NC3=CC(=NC(=N3)C)N4CCN(CC4)CCO [Dasatinib]; details: max 2 µM
In short: as §1

[19] = compound: CC(=O)Nc1cccc(-n2c(=O)n(C3CC3)c(=O)c3c(Nc4ccc(I)cc4F)n(C)c(=O)c(C)c32)c1 [Trametinib]; details: max 1 µM
In short: as §1

[20] = compound: Cn1cnc2c(F)c(Nc3ccc(Br)cc3Cl)c(C(=O)NOCCO)cc21 [Selumetinib]; details: max 10 µM
In short: as §1

[21] = compound: COc1cc([C@@H]2c3cc4c(cc3[C@@H](O[C@@H]3O[C@@H]5CO[C@@H](C)O[C@H]5[C@H](O)[C@H]3O)[C@H]3COC(=O)[C@H]23)OCO4)cc(OC)c1O [Etoposide]; details: max 10 µM
In short: as §1

[22] = compound: O=C(Nc1ccc2[nH]nc(-c3ccncc3)c2c1)[C@@H]1CCN(CC(=O)N2CCN(c3ccc(-c4ncccn4)cc3)CC2)C1; details: max 5 µM
In short: as §1

[23] = compound: CN(C)CCCOc1ccc(-c2ccc3ncc4c(c3c2)n(C2CCOCC2)c(=O)n4C)cn1 [AZD0156]; details: max 3 µM
In short: as §1

[24] = compound: C[C@@H]1COCCN1C2=NC(=NC(=C2)C3(CC3)[S@](=N)(=O)C)C4=C5C=CNC5=NC=C4 [AZD6738]; details: max 10 µM
In short: as §1

[25] = compound: CC1=CN2[C@@H](C1)C=NC3=CC(=C(C=C3C2=O)OC)OCCCCCOC4=C(C=C5C(=C4)N=C[C@@H]6CC(=CN6C5=O)C)OC [SG3199]; details: max 0.001 µM
In short: as §1

[26] = compound: CC(=O)O[C@H]1C(=O)[C@@]2(C)[C@H]([C@H](OC(=O)c3ccccc3)[C@]3(O)C[C@H](OC(=O)[C@H](O)[C@@H](NC(=O)c4ccccc4)c4ccccc4)C(C)=C1C3(C)C)[C@]1(OC(C)=O)CO[C@@H]1C[C@@H]2O [Paclitaxel]; details: max 3 µM
In short: as §1

[27] = compound: COc1cccc(OCCCN)c1-c1cc(Nc2cnc(C#N)cn2)n[nH]1 [Prexasertib]; details: max 1 µM
In short: as §1

[28] = compound: Cc1c2c(nn1C)CSCc1cc(n(C)n1)CSc1cc(c3ccccc3c1)OCCCc1c(C(=O)O)n(C)c3c-2c(Cl)ccc13 [AZD5991]; details: max 1 µM
In short: as §1

[29] = compound: O=C(c1cc(Cc2n[nH]c(=O)c3ccccc23)ccc1F)N1CCN(C(=O)C2CC2)CC1 [Olaparib]; details: max 10 µM
In short: as §1

[30] = compound: O=c1[nH]cc(F)c(=O)[nH]1 [5-Fluorouracil]; details: max 20 µM
In short: as §1

[31] = compound: CS(=O)(=O)CCNCc1ccc(-c2ccc3ncnc(Nc4ccc(OCc5cccc(F)c5)c(Cl)c4)c3c2)o1 [Lapatinib]; details: max 10 µM
In short: as §1

[32] = compound: C1CC(C1)(C(=O)[O-])C(=O)[O-].N.N.[Pt+2] [Carboplatin]; details: max 10 µM
In short: as §1

[33] = compound: CCN(CCO)CCCOc1ccc2c(Nc3cc(CC(=O)Nc4cccc(F)c4)[nH]n3)ncnc2c1 [AZD2811]; details: max 1 µM
In short: as §1

[34] = compound: CCc1c2c(nc3ccc(O)cc13)-c1cc3c(c(=O)n1C2)COC(=O)[C@]3(O)CC [SN-38]; details: max 0.3 µM
In short: as §1

[35] = compound: C[C@@H](Nc1cc(F)cc(F)c1)c1cc(C(=O)N(C)C)cc2c(=O)cc(N3CCOCC3)oc12 [AZD8186]; details: max 10 µM
In short: as §1

Cell Line	IC50, cell viability 72 h [1] [nM]	IC50, cell viability 72 h [2] [µM]	IC50, cell viability 72 h [3] [nM]	IC50, cell viability 72 h [4] [nM]	IC50, cell viability 72 h [5] [nM]	IC50, cell viability 72 h [6] [nM]	IC50, cell viability 72 h [7] [µM]	IC50, cell viability 72 h [8] [nM]	IC50, cell viability 72 h [9] [nM]	IC50, cell viability 72 h [10] [nM]	IC50, cell viability 72 h [11] [nM]	IC50, cell viability 72 h [12] [µM]	IC50, cell viability 72 h [13] [µM]	IC50, cell viability 72 h [14] [µM]	IC50, cell viability 72 h [15] [µM]	IC50, cell viability 72 h [16] [µM]	IC50, cell viability 72 h [17] [µM]	IC50, cell viability 72 h [18] [nM]	IC50, cell viability 72 h [19] [nM]	IC50, cell viability 72 h [20] [µM]	IC50, cell viability 72 h [21] [µM]	IC50, cell viability 72 h [22] [nM]	IC50, cell viability 72 h [23] [nM]	IC50, cell viability 72 h [24] [µM]	IC50, cell viability 72 h [25] [nM]	IC50, cell viability 72 h [26] [nM]	IC50, cell viability 72 h [27] [nM]	IC50, cell viability 72 h [28] [nM]	IC50, cell viability 72 h [29] [µM]	IC50, cell viability 72 h [30] [µM]	IC50, cell viability 72 h [31] [µM]	IC50, cell viability 72 h [32] [µM]	IC50, cell viability 72 h [33] [nM]	IC50, cell viability 72 h [34] [nM]	IC50, cell viability 72 h [35] [µM]
A4-Fuk (B-Lymphoblastic Leukemia)	> 300	4.24	6.82	237	966	29.4	5.15	> 1000	> 1000	110	844	> 10	2.77	2.21	2.06	0.207	0.234	> 2000	282	> 10	0.321	771	2420	2.21	> 1	3.17	7.45	77.6	> 10	3.92	7.57	> 10	> 1000	17.4	5.86
COLO-668 (Small Cell Lung Carcinoma)	> 300	> 10	41.3	329	> 1000	> 1000	> 10	319	> 1000	> 3000	> 10000	> 10	> 10	> 10	> 10	> 10	5.34	> 2000	408	> 10	> 10	4480	> 3000	8.16	> 1	> 3000	63.7	> 1000	> 10	> 20	> 10	> 10	> 1000	5.32	> 10
COLO-679 (Melanoma)	> 300	> 10	15.2	342	> 1000	> 1000	> 10	> 1000	> 1000	> 3000	1890	> 10	> 10	> 10	> 10	> 10	> 10	> 2000	3.7	0.242	7.18	90.6	> 3000	4.92	> 1	658	11.2	> 1000	> 10	> 20	> 10	> 10	> 1000	46.1	> 10
Ca-Ski (Cervical Carcinoma)	> 300	> 10	222	355	> 1000	867	> 10	> 1000	> 1000	657	> 10000	> 10	> 10	> 10	> 10	8.32	2.22	558	> 1000	> 10	8.85	> 5000	> 3000	> 10	> 1	23.8	83.8	> 1000	> 10	> 20	> 10	> 10	> 1000	11.7	> 10
DU-145 (Prostate Carcinoma)	> 300	> 10	> 300	> 1000	> 1000	> 1000	> 10	> 1000	> 1000	> 3000	> 10000	> 10	> 10	> 10	> 10	> 10	> 10	> 2000	> 1000	> 10	> 10	> 5000	> 3000	> 10	> 1	187	262	> 1000	> 10	> 20	> 10	> 10	> 1000	47.3	> 10
